Test results reported in ChEMBL document CHEMBL1121780, “Synthesis and antiarrhythmic activity of new benzofuran derivatives” (J Med Chem, 1981).
Several values for one entry are separate records, joined by “and”; a condition that tells them apart may be missing. Equal entries are not always repeated. Activity calls are given as the source filed them. The calls are words filed in the database; no cut-off is given here.

What was measured:
[1] = Toxicity estimated in mouse as LD50 by intravenous administration; type: organism-based; conditions: in vivo
[2] = species on record: Canis familiaris; assay: Duration for the sinus rhythm recovery was measured; type: functional, Canis lupus familiaris
[3] = test system: Canis familiaris; assay: Activity against ouabain-induced ventricular arrhythmia was measured as percent of sinus rhythm recovery at dose of 8 mg/kg iv; type: functional, Canis lupus familiaris, Cardiac ventricle
[4] = test system: Canis familiaris; assay: Activity against harris coronary ligation induced ventricular arrhythmia was measured as percent of final sinus complexes after dose 2 mg/kg, iv; type: functional, Canis lupus familiaris, Cardiac ventricle
[5] = species on record: Canis familiaris; assay: Duration for the antiarrhythmic activity was measured; 10-60; type: functional, Canis lupus familiaris, Heart
[6] = test system: Canis familiaris; assay: Activity against ouabain-induced ventricular arrhythmia was measured as percent of sinus rhythm recovery at dose of 1 mg/kg iv; type: functional, Canis lupus familiaris, Cardiac ventricle
[7] = test system: Canis familiaris; assay: Activity against harris coronary ligation induced ventricular arrhythmia was measured as percent of initial sinus complexes after dose 2 mg/kg iv; type: organism-based, Canis lupus familiaris, Cardiac ventricle; set-up: dose 2 mg/kg, route intravenous; conditions: dog, in vivo
[8] = test system: Canis familiaris; assay: Activity against harris coronary ligation induced ventricular arrhythmia was measured as percent of initial sinus complexes after dose mg/kg, iv=6; Inactive; type: functional, organism-based; conditions: Canis lupus familiaris; Cardiac ventricle
[9] = test system: Canis familiaris; assay: Activity against ouabain-induced ventricular arrhythmia was measured as percent of sinus rhythm recovery at dose of 2.5 mg/kg iv; type: functional, Canis lupus familiaris, Cardiac ventricle
[10] = test system: Canis familiaris; assay: Activity against harris coronary ligation induced ventricular arrhythmia was measured as percent of initial sinus complexes after dose 12.5 mg/kg, po; type: functional, Canis lupus familiaris, Cardiac ventricle
[11] = test system: Canis familiaris; assay: Activity against harris coronary ligation induced ventricular arrhythmia was measured as percent of final sinus complexes after dose 6.25 mg/kg, po; type: functional, Canis lupus familiaris, Cardiac ventricle
[12] = test system: Canis familiaris; assay: Activity against harris coronary ligation induced ventricular arrhythmia was measured as percent of initial sinus complexes after dose 6.25 mg/kg, po; type: functional, Canis lupus familiaris, Cardiac ventricle
[13] = test system: Canis familiaris; assay: Activity against harris coronary ligation induced ventricular arrhythmia was measured as percent of final sinus complexes after dose 5 mg/kg, iv; type: functional, Canis lupus familiaris, Cardiac ventricle
[14] = test system: Canis familiaris; assay: (§1) Activity against harris coronary ligation induced ventricular arrhythmia was measured as percent of final sinus complexes after dose 12.5 mg/kg, po; type: functional, Canis lupus familiaris, Cardiac ventricle
[15] = test system: Canis familiaris; assay: Activity against harris coronary ligation induced ventricular arrhythmia was measured as percent of initial sinus complexes after dose 5 mg/kg, iv; type: functional, Canis lupus familiaris, Cardiac ventricle
[16] = test system: Canis familiaris; assay: Activity against harris coronary ligation induced ventricular arrhythmia was measured as percent of initial sinus complexes after dose 25 mg/kg, po; type: functional, Canis lupus familiaris, Cardiac ventricle
[17] = test system: Canis familiaris; assay: Activity against ouabain-induced ventricular arrhythmia was measured as percent of sinus rhythm recovery at dose of 2 mg/kg iv; type: functional, Canis lupus familiaris, Cardiac ventricle
[18] = test system: Canis familiaris; assay: Activity against harris coronary ligation induced ventricular arrhythmia was measured as percent of initial sinus complexes after dose 2.5 mg/kg, iv; type: functional, Canis lupus familiaris, Cardiac ventricle
[19] = test system: Canis familiaris; assay: Activity against harris coronary ligation induced ventricular arrhythmia was measured as percent of final sinus complexes after dose 2.5 mg/kg, iv; type: functional, Canis lupus familiaris, Cardiac ventricle
[20] = test system: Canis familiaris; assay: Activity against harris coronary ligation induced ventricular arrhythmia was measured as percent of final sinus complexes after dose 25 mg/kg, po; type: functional, Canis lupus familiaris, Cardiac ventricle
[21] = Toxicity was estimated in mouse as LD50 by intravenous administration; LD50 = 200(30%); type: organism-based; conditions: in vivo
[22] = test system: Canis familiaris; assay: Activity against ouabain-induced ventricular arrhythmia was measured as percent of sinus rhythm recovery at dose of 10 mg/kg iv; type: functional, Canis lupus familiaris, Cardiac ventricle
[23] = test system: Canis familiaris; assay: Activity against ouabain-induced ventricular arrhythmia was measured as percent of sinus rhythm recovery at dose of 6 mg/kg iv; type: functional, Canis lupus familiaris, Cardiac ventricle
[24] = test system: Canis familiaris; assay: Activity against harris coronary ligation induced ventricular arrhythmia was measured as percent of initial sinus complexes after dose mg/kg, iv=2; type: functional, Canis lupus familiaris, Cardiac ventricle
[25] = species on record: Canis familiaris; assay: Duration for the antiarrhythmic activity was measured; type: functional, Canis lupus familiaris, Heart
[26] = test system: Canis familiaris; assay: Activity against harris coronary ligation induced ventricular arrhythmia was measured as percent of final sinus complexes after dose mg/kg, iv=2; type: functional, Canis lupus familiaris, Cardiac ventricle
[27] = test system: Canis familiaris; assay: Activity against harris coronary ligation induced ventricular arrhythmia was measured as percent of initial sinus complexes after dose 10 mg/kg, iv; type: functional, Canis lupus familiaris, Cardiac ventricle
[28] = test system: Canis familiaris; assay: Activity against ouabain-induced ventricular arrhythmia was measured as percent of sinus rhythm recovery at dose of 5 mg/kg iv; type: functional, Canis lupus familiaris, Cardiac ventricle
[29] = test system: Canis familiaris; assay: Activity against harris coronary ligation induced ventricular arrhythmia was measured as percent of final sinus complexes after dose 10 mg/kg, iv; type: functional, Canis lupus familiaris, Cardiac ventricle
[30] = test system: Canis familiaris; assay: Activity against harris coronary ligation induced ventricular arrhythmia was measured as percent of final sinus complexes after dose 1 mg/kg iv; type: functional, Canis lupus familiaris, Cardiac ventricle
[31] = test system: Canis familiaris; assay: Activity against harris coronary ligation induced ventricular arrhythmia was measured as percent of initial sinus complexes after dose 1 mg/kg iv; type: functional, Canis lupus familiaris, Cardiac ventricle
[32] = test system: Canis familiaris; assay: Activity against ouabain-induced ventricular arrhythmia was measured as percent of sinus rhythm recovery at the dose of 2 mg/kg iv; type: functional, Canis lupus familiaris, Cardiac ventricle
[33] = test system: Canis familiaris; assay: Activity against harris coronary ligation induced ventricular arrhythmia was measured as percent of initial sinus complexes after dose mg/kg, iv=12.5; type: functional, Canis lupus familiaris, Cardiac ventricle
[34] = test system: Canis familiaris; assay: Activity against harris coronary ligation induced ventricular arrhythmia was measured as percent of final sinus complexes after dose mg/kg, iv; type: functional, Canis lupus familiaris, Cardiac ventricle
[35] = test system: Canis familiaris; assay: Activity against harris coronary ligation induced ventricular arrhythmia was measured as percent of final sinus complexes after dose 10 mg/kg iv; type: functional, Canis lupus familiaris, Cardiac ventricle
[36] = test system: Canis familiaris; assay: Activity against harris coronary ligation induced ventricular arrhythmia was measured as percent of initial sinus complexes after dose mg/kg, iv=25; type: functional, Canis lupus familiaris, Cardiac ventricle
[37] = test system: Canis familiaris; assay: Activity against harris coronary ligation induced ventricular arrhythmia was measured as percent of initial sinus complexes after dose 10 mg/kg iv; type: functional, Canis lupus familiaris, Cardiac ventricle
[38] = test system: Canis familiaris; assay: Activity against harris coronary ligation induced ventricular arrhythmia was measured as percent of initial sinus complexes after dose 5 mg/kg iv; type: functional, Canis lupus familiaris, Cardiac ventricle
[39] = test system: Canis familiaris; assay: Activity against harris coronary ligation induced ventricaulr arrhythmia was measured as percent of initial sinus complexes after dose 12.5 mg/kg po; type: functional, Canis lupus familiaris
[40] = test system: Canis familiaris; assay: as §1; type: functional, Canis lupus familiaris, Cardiac ventricle; remark: listed apart in the source
[41] = test system: Canis familiaris; assay: Activity against harris coronary ligation induced ventricular arrhythmia was measured as percent of final sinus complexes after dose 2 mg/kg iv; type: functional, Canis lupus familiaris, Cardiac ventricle
[42] = test system: Canis familiaris; assay: Activity against harris coronary ligation induced ventricular arrhythmia was measured as percent of final sinus complexes after dose 2 mg/kg, po; type: functional, Canis lupus familiaris, Cardiac ventricle
[43] = test system: Canis familiaris; assay: Activity against harris coronary ligation induced ventricular arrhythmia was measured as percent of final sinus complexes after dose 20 mg/kg, po; type: functional, Canis lupus familiaris, Cardiac ventricle
[44] = test system: Canis familiaris; assay: Activity against harris coronary ligation induced ventricular arrhythmia was measured as percent of initial sinus complexes after dose 2 mg/kg po; type: functional, Canis lupus familiaris, Cardiac ventricle
[45] = test system: Canis familiaris; assay: Activity against harris coronary ligation induced ventricular arrhythmia was measured as percent of initial sinus complexes after dose 2 mg/kg, iv; type: functional, Canis lupus familiaris, Cardiac ventricle
[46] = test system: Canis familiaris; assay: Activity against harris coronary ligation induced ventricular arrhythmia was measured as percent of final sinus complexes after dose 5 mg/kg iv; type: functional, Canis lupus familiaris, Cardiac ventricle
[47] = test system: Canis familiaris; assay: Activity against harris coronary ligation induced ventricular arrhythmia was measured as percent of final sinus complexes after dose 25 mg/kg po; type: functional, Canis lupus familiaris, Cardiac ventricle
[48] = test system: Canis familiaris; assay: Activity against harris coronary ligation induced ventricular arrhythmia was measured as percent of initial sinus complexes after dose 25 mg/kg po; type: functional, Canis lupus familiaris, Cardiac ventricle
[49] = Toxicity was estimated in mouse as LD50 by intravenous administration; LD50=1000 (40%); type: organism-based; conditions: in vivo

SMILES: CNC(=O)Nc1c(OC)c2c(c(OC)c1OCCN1CCCCC1)OCC2
- LD50 [1]: 180 mg/kg
- Duration [2]: <30 min
- SRR [3]: 100%

SMILES: CNC(=O)Nc1c(OCCN(C)C)c(OC)c2occc2c1OC
- LD50 [1]: 100 mg/kg
- FSC [4]: 20%
- Duration [5]: 10 min
- SRR [6]: 100%
- ISC [7]: 5%
- Duration [2]: 30 min

SMILES: COc1c(NC(C)=O)c(OCCN2CCCCC2)c(OC)c2occc12
- LD50 [1]: 52 mg/kg
- ISC [8]: inactive
- Duration [2]: >50 min
- SRR [9]: 100%

SMILES: CNC(=O)Nc1c(OCCN2CCCCC2)c(OC)c2occc2c1OC [MUROCAINIDE]
- LD50 [1]: 50 mg/kg
- ISC [10]: 5%
- FSC [11]: 14%
- ISC [12]: 1%
- FSC [13]: 85%
- FSC [14]: 90%
- ISC [15]: 14%
- ISC [16]: 13%
- Duration [2]: >60 min
- SRR [17]: 100%
- ISC [18]: 3%
- FSC [19]: 45%
- FSC [20]: 98%

SMILES: COc1c(NC(C)=O)c(OCCN2CCN(C)CC2)c(OC)c2occc12
- Duration [2]: <30 min
- LD50 [21]: 200 mg/kg
- SRR [22]: 66%

SMILES: COc1c(NC(C)=O)c(OCCNC(C)C)c(OC)c2occc12
- LD50 [1]: 88 mg/kg
- SRR [23]: 33%
- Duration [2]: <30 min

SMILES: CCCN(CCC)CCOc1c(NC(=O)NC)c(OC)c2ccoc2c1OC
- LD50 [1]: 52 mg/kg
- ISC [24]: 30%
- Duration [25]: 5 min
- Duration [2]: 45 min
- SRR [17]: 100%
- FSC [26]: 37%

SMILES: CNC(=O)Nc1c(OCCN2CCN(C)CC2)c(OC)c2occc2c1OC
- LD50 [1]: 145 mg/kg
- Duration [25]: 30 min and <30 min
- ISC [27]: 18%
- FSC [13]: 50%
- ISC [15]: 1%
- Duration [2]: 120 min
- SRR [28]: 100%
- FSC [29]: 98%

SMILES: COc1c(NC(=O)OC(C)C)c(OCCN2CCCCC2)c(OC)c2occc12
- LD50 [1]: 10 mg/kg
- Duration [25]: 10 min
- SRR [6]: 100%
- FSC [30]: 50%
- Duration [2]: >100 min
- ISC [31]: 30%

SMILES: CNC(=O)Nc1c(OCCN2CCCCC2)cc2occc2c1OC
- LD50 [1]: 100 mg/kg
- SRR [32]: 100%

SMILES: C=C[C@H]1CN2CC[C@H]1C[C@@H]2[C@@H](O)c1ccnc2ccc(OC)cc12 [QUINIDINE]
- LD50 [1]: 89 mg/kg
- ISC [33]: 9%
- FSC [34]: 25% and 56%
- Duration [25]: >90 min and 120 min and 240 min
- FSC [35]: 67%
- Duration [2]: 60 min
- ISC [36]: 9%
- SRR [22]: 50%
- ISC [37]: 5%

SMILES: CNC(=O)Nc1c(OCCN2CCCC2)c(OC)c2occc2c1OC [CAROCAINIDE]
- ISC [38]: 18%
- ISC [39]: 19% and 12%
- LD50 [1]: 88 mg/kg
- FSC [40]: 81%
- FSC [41]: 75%
- FSC [42]: 100%
- FSC [43]: 100%
- ISC [44]: 33%
- FSC [14]: 95%
- Duration [2]: 69 min
- SRR [17]: 100%
- ISC [45]: 15%
- FSC [46]: 100%

SMILES: CC(C)N(CCC(C(N)=O)(c1ccccc1)c1ccccn1)C(C)C (configuration not stated) [DISOPYRAMIDE]
- ISC [38]: 19%
- LD50 [1]: 60 mg/kg
- Duration [25]: 60 min and 180 min
- FSC [47]: 100%
- Duration [2]: 25 min
- SRR [28]: 100%
- FSC [46]: 100%
- ISC [48]: 1%

SMILES: CNC(=O)Nc1c(OCCN2CCC2)c(OC)c2occc2c1OC
- Duration [2]: 10 min
- SRR [17]: 100%
- LD50 [49]: 1000 mg/kg
